Data as given in article PMC7442270, “Phase 3 Trial of a Small-volume Subcutaneous 6-Month Duration Leuprolide Acetate Treatment for Central Precocious Puberty” (The Journal of Clinical Endocrinology and Metabolism, 2020).

Assay: clinical
Set-up: species or system children with CPP
Conditions: human, in vivo, sc, 45 mg
Procedure: All samples were processed by a central laboratory (Syneos Health [formerly […] Health Clinique Inc.], Canada). A validated bioanalytical LC-MS/MS method with an LLOD of 0.025 ng/mL was used to measure serum leuprolide concentrations.

- Cmax: 212 ng/mL
- level at 672 h: 0.63 ng/mL
- AUC (burst phase): 938 ng·h/mL
- AUC (plateau phase): 42300 ng·h/mL
- Tmax (T max, burst phase (time at which the Cmax is observed)): 3.7 h
- Tmax (Time after injection at which leuprolide levels peaked): 4 h
SMILES: CCNC(=O)[C@@H]1CCCN1C(=O)[C@H](CCCNC(=N)N)NC(=O)[C@H](CC(C)C)NC(=O)[C@@H](CC(C)C)NC(=O)[C@H](Cc1ccc(O)cc1)NC(=O)[C@H](CO)NC(=O)[C@H](Cc1c[nH]c2ccccc12)NC(=O)[C@H](Cc1c[nH]cn1)NC(=O)[C@@H]1CCC(=O)N1 [leuprolide]
